Results published in PubChem BioAssay (NCI).
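Assay format: 96-well plates, 48-hour exposure. Abbreviation: GI50, concentration required for 50% inhibition of growth. TGI: total growth inhibition.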

Key:
Assay in all cases: inhibition of tumour cell growth, NCI panel, 48 h
MDA-MB-435 = tested on: MDA-MB-435
HCT-15 colon = tested on: HCT-15 colon
HL-60(TB) leukemia = tested on: HL-60(TB) leukemia
RXF 393 renal = tested on: RXF 393 renal
OVCAR-3 ovarian = tested on: OVCAR-3 ovarian
EKVX NSCLC = tested on: EKVX NSCLC
IGROV1 ovarian = tested on: IGROV1 ovarian
SF-539 CNS = tested on: SF-539 CNS
CAKI-1 renal = tested on: CAKI-1 renal
COLO 205 colon = tested on: COLO 205 colon
PC-3 prostate = tested on: PC-3 prostate
NCI-H460 lung = tested on: NCI-H460 lung
OVCAR-4 ovarian = tested on: OVCAR-4 ovarian
MDA-MB-231 breast = tested on: MDA-MB-231 breast
A549 NSCLC = tested on: A549 NSCLC
HT29 colon = tested on: HT29 colon
HOP-92 NSCLC = tested on: HOP-92 NSCLC
DU-145 prostate = tested on: DU-145 prostate
U251 CNS = tested on: U251 CNS
BT-549 breast = tested on: BT-549 breast
SK-OV-3 ovarian = tested on: SK-OV-3 ovarian
M14 melanoma = tested on: M14 melanoma
NCI-H23 lung = tested on: NCI-H23 lung
OVCAR-8 ovarian = tested on: OVCAR-8 ovarian
K-562 leukemia = tested on: K-562 leukemia
SW-620 colon = tested on: SW-620 colon
RPMI-8226 leukemia = tested on: RPMI-8226 leukemia
T-47D breast = tested on: T-47D breast
SK-MEL-28 melanoma = tested on: SK-MEL-28 melanoma

N/C(=N\c1nc2ccccc2s1)NC(=O)Nc1ccccc1F
GI50 (MDA-MB-435): 0.231 µM | TGI (MDA-MB-435): 0.68 µM | GI50 (HCT-15 colon): 0.434 µM | TGI (HCT-15 colon): > 100 µM | GI50 (HL-60(TB) leukemia): 0.385 µM | TGI (HL-60(TB) leukemia): 13.6 µM | GI50 (RXF 393 renal): 0.645 µM | TGI (RXF 393 renal): 5.25 µM | GI50 (OVCAR-3 ovarian): 0.369 µM | TGI (OVCAR-3 ovarian): 4.74 µM | GI50 (EKVX NSCLC): 0.526 µM | TGI (EKVX NSCLC): 67.2 µM | GI50 (IGROV1 ovarian): 1 µM | TGI (IGROV1 ovarian): 25.2 µM | GI50 (SF-539 CNS): 0.529 µM | TGI (SF-539 CNS): 4.72 µM | GI50 (CAKI-1 renal): 0.525 µM | TGI (CAKI-1 renal): 15.9 µM | GI50 (COLO 205 colon): 1.27 µM | TGI (COLO 205 colon): 10.1 µM | GI50 (PC-3 prostate): 2.07 µM | TGI (PC-3 prostate): 21.2 µM | GI50 (NCI-H460 lung): 0.406 µM | TGI (NCI-H460 lung): 12.2 µM | GI50 (OVCAR-4 ovarian): 10.9 µM | TGI (OVCAR-4 ovarian): 39 µM | GI50 (MDA-MB-231 breast): 0.724 µM | TGI (MDA-MB-231 breast): 21.2 µM | GI50 (A549 NSCLC): 0.955 µM | TGI (A549 NSCLC): 26.6 µM | GI50 (HT29 colon): 0.369 µM | TGI (HT29 colon): 10.1 µM | GI50 (HOP-92 NSCLC): 6.33 µM | TGI (HOP-92 NSCLC): 24.5 µM | GI50 (DU-145 prostate): 2.85 µM | TGI (DU-145 prostate): 15.6 µM | GI50 (U251 CNS): 0.468 µM | TGI (U251 CNS): 14.4 µM | GI50 (BT-549 breast): 0.477 µM | TGI (BT-549 breast): 26 µM | GI50 (SK-OV-3 ovarian): 6.48 µM | TGI (SK-OV-3 ovarian): 23.8 µM | GI50 (M14 melanoma): 0.4 µM | TGI (M14 melanoma): 20.8 µM | GI50 (NCI-H23 lung): 2.23 µM | TGI (NCI-H23 lung): 25 µM | GI50 (OVCAR-8 ovarian): 1.25 µM | TGI (OVCAR-8 ovarian): 16.6 µM | GI50 (K-562 leukemia): 0.307 µM | TGI (K-562 leukemia): > 100 µM | GI50 (SW-620 colon): 0.412 µM | TGI (SW-620 colon): 21.9 µM | GI50 (RPMI-8226 leukemia): 1.26 µM | TGI (RPMI-8226 leukemia): 17.3 µM | GI50 (T-47D breast): 2.85 µM | TGI (T-47D breast): > 100 µM | GI50 (SK-MEL-28 melanoma): 10.2 µM | TGI (SK-MEL-28 melanoma): 26.4 µM
